Values after ≈ are worked out from the molar mass of the structure shown. Where two headings read alike, the source gives them in different places.
Tests used:
CCR5 = CCR5 (Homo sapiens (Human), UniProt P51681); assay: Calcium flux inhibition experiment; type: cell-based; conditions: for calcium influx inhibition effect in words, versus positive control compounds: conclusion from Table 1
Excerpt: Experiment apparatus: FlexStation II
Experiment materials: HEK293/CCR5-Gα16 cell line, Fluo-4calcium dye (fluorescent-4 calcium ion dye) and FlexStation instrument.
Experiment theory: Activation of the receptor can cause the activation of Gα16 protein, thereby activating phospholipase C (PLC) to generate IP3 and DAG by establishing CCR5 and Ga16 co-transfected cell line. IP3 can bind to IP3 receptors on the endoplasmic reticulum and mitochondria in a cell, which can cause the release of intracellular calcium. Thus, determination of changes in intracellular calcium can be used as a method to detect CCR5 activation state. Fluo-4/AM is a fluorescent probe indicator for calcium used to measure calcium ion. As a non-polar lipid-soluble compound, after it enters into cells, AM group is dissociated to release Fluo-4 under the effect of cell lipolysis enzyme. Fluo-4 is a polar molecule and not easy to go through the lipid bilayer membrane, therefore it can stay within the cells for a long time. Ultimately, the level of activated Ga protein can be reflected by measuring the excited fluorescence intensity. If the screened compound can activate CCR5, it can greatly increase the calcium flux reaction; on the contrary, if the screened compound can antagonize CCR5, it can greatly reduce calcium flux reaction.
1. HEK293 cells which can stably express CCR5 were inoculated in a 96-well plate and incubated overnight.
2. The medium in each well into which cells were innoculated was removed and 40 μl/well of freshly prepared dye was added. The plate was placed in a 37° C. incubator and incubated for 40 minutes at constant temperature.
3. The medicament to be determined was diluted with calcium buffer to eight concentration gradients, which is 1×10^−4 M, 1×10^−5 M, 1×10^−6 M, 1×10^−7 M, 1×10^−8 M, 1×10^−9 M, 1×10^−10 M, and 1×10^−11 M, respectively, and homogeneously mixed.
4. The dye was removed. Freshly prepared calcium buffer was used to wash for one time, 50 μl of calcium buffer was added.
5. FlexStation II was used for detection. 25 μl of calcium buffer containing the medicament to be determined was added automatically from the 15th second.

[1] = Cytotoxicity (CC50) in TZM-bl cells; type: cell-based; conditions: human
HIV-1SF162 virus strain = assay: Inhibition activity on TZM-bl cells infected with HIV-1SF162; conditions: for EC50: Human immunodeficiency virus 1, TZM-bl; for therapeutic index (TI): TZM-bl cells infected with HIV-1SF162
[2] = HEK293/CCR5-Gα16 cell line, calcium flux, read-out: CCR5 IC50
[3] = TZM-bl cells (Table 3), read-out: CC50

Chain of CCR5 (P51681 whole entry): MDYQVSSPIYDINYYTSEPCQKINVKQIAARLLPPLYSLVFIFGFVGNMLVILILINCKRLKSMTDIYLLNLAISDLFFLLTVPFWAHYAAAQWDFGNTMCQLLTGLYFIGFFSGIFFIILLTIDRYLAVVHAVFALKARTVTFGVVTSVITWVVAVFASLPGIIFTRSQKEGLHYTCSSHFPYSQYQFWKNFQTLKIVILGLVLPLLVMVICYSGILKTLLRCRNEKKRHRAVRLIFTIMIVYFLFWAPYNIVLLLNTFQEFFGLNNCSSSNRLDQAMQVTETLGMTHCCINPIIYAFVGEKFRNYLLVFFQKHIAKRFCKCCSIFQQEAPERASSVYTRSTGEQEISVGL

SMILES | IC50 (CCR5; [2]) | EC50 (HIV-1SF162 virus strain) | therapeutic index (TI) (HIV-1SF162 virus strain) | calcium influx inhibition effect in words, versus positive control compounds (CCR5) | further results
CCC(=O)N1CCc2c(nc(C)n2C2CC3CCC(C2)N3CC[C@H](NC(C)=O)c2nccs2)C1 (stereo partly drawn) [Compound 120, N-{(1S)-3-[(3-endo)-3-(5-propionyl-2-methyl-4,5,6,7-tetrahydro-1H-imidazo[4,5-c]pyridin-1-yl)-8-azabicyclo[3.2.1]octane-8-yl]-1-(thiazol-2-yl)-propyl}acetamide] | 27.7 nM | 0.831 µg/mL (≈ 1.71 µM) | >240.76 | – | CC50 [1]: > 200 µg/mL
Cc1nnc(C(C)C)n1C1CC2CCC(C1)N2CC[C@H](NC(=O)C1CCC(F)(F)CC1)c1ccc(F)s1 (stereo partly drawn) [Compound 37, 4,4-difluoro-N-[(1S)-3-[exo-3-(3-isopropyl-5-methyl-4H-1,2,4-triazol-4-yl)-8-azabicyclo[3.2.1]octane-8-yl]-1-(5-fluorothiophen-2-yl)propyl]cyclohexane-1-carboxamide] | – | 0.647 µg/mL (≈ 1.2 µM) | >309.12 | – | CC50 at 3 days [1]: > 200 µg/mL
Cc1ccc([C@H](CCN2C3CCC2CC(n2c(C)nnc2C(C)C)C3)NC(=O)c2ccccc2)s1 (stereo partly drawn) [Compound 32, N-[(1S)-3-[exo-3-(3-isopropyl-5-methyl-4H-1,2,4-triazol-4-yl)-8-azabicyclo[3.2.1]octane-8-yl]-1-(5-methylthiophen-2-yl)propyl]benzamide] | 8.35 nM | > 40 µg/mL | – | comparable to the positive control compounds | CC50 [1]: > 200 µg/mL
CC(=O)N[C@@H](CCN1C2CCC1CC(n1c(C)nc3c1CCN(C(=O)C1CC1)C3)C2)c1ccc(Cl)s1 (stereo partly drawn) [Compound 130, N-{(1S)-3-[(3-endo)-3-(5-cyclopropionyl-2-methyl-4,5,6,7-tetrahydro-1H-imidazo[4,5-c]pyridin-1-yl)-8-azabicyclo[3.2.1]octane-8-yl]-1-(5-chlorothiophen-2-yl)-propyl}acetamide] | 18.5 nM | 0.053 µg/mL (≈ 0.1 µM) | >2562.98 | – | CC50 [1]: > 200 µg/mL
CC(=O)N[C@@H](CCN1C2CCC1CC(n1c(C)nc3c1CCN(C(C)=O)C3)C2)c1ccc(F)s1 (stereo partly drawn) [Compound 131, N-{(1S)-3-[(3-endo)-3-(5-acetyl-2-methyl-4,5,6,7-tetrahydro-1H-imidazo[4,5-c]pyridin-1-yl)-8-azabicyclo[3.2.1]octane-8-yl]-1-(5-fluorothiophen-2-yl)-propyl}acetamide] | 6.57 nM | 0.098 µg/mL (≈ 0.201 µM) | >1302.27 | better than the positive control compounds | CC50 [1, 3]: > 200 µg/mL
COC(=O)N1CCc2c(nc(C)n2C2CC3CCC(C2)N3CC[C@H](NC(C)=O)c2ccc(F)s2)C1 (stereo partly drawn) [Compound 133, Methyl 1-{(endo)-8-[(S)-3-acetamido-3-(5-fluorothiophen-2-yl)-propyl]-8-azabicyclo[3.2.1]octan-3-yl}-2-methyl-1,4,6,7-tetrahydro-5H-imidazo[4,5-c]pyridine-5-carboxylate] | 1.78 nM | 0.152 µg/mL (≈ 0.302 µM) | >1313.56 | better than the positive control compounds | CC50 [1]: > 200 µg/mL
CC(=O)N1CCc2c(nc(C)n2C2CC3CCC(C2)N3CC[C@H](NC(=O)C2CCC(F)(F)CC2)c2ccsc2)C1 (stereo partly drawn) [Compound 42, 4,4-difluoro-N-{(1S)-1-(thiophen-3-yl)-3-[(3-endo)-3-(5-acetyl-2-methyl-4,5,6,7-tetrahydro-1H-imidazo[4,5-c]pyridin-1-yl)-8-azabicyclo[3.2.1]octane-8-yl]propyl}cyclohexane-1-carboxamide] | 15.9 nM | – | – | – | –
COC(=O)c1ccc([C@H](CCN2C3CCC2CC(n2c(C)nnc2C(C)C)C3)NC(=O)C2CCC(F)(F)CC2)s1 (stereo partly drawn) [Compound 73, 4,4-difluoro-N-[(1S)-3-[exo-3-(3-isopropyl-5-methyl-4H-1,2,4-triazol-4-yl)-8-azabicyclo[3.2.1]octane-8-yl]-1-(5-methoxycarbonylthiophen-2-yl)propyl]cyclohexane-1-carboxamide] | – | – | – | – | IC50 (CCR5): 8.23 nM
Cc1nnc(C(C)C)n1C1CC2CCC(C1)N2CC[C@H](NC(=O)C1CCN(S(C)(=O)=O)CC1)c1cccs1 (stereo partly drawn) [Compound 146, N-[(1S)-3-[exo-3-(3-isopropyl-5-methyl-4H-1,2,4-triazol-4-yl)-8-azabicyclo[3.2.1]octane-8-yl]-1-(thiophen-2-yl)propyl]-1-methylsulfonylpiperidine-4-carboxamide] | 1.75 nM | – | – | better than the positive control compounds | –
Cc1nnc(C(C)C)n1C1CC2CCC(C1)N2CC[C@H](NC(=O)C1CCN(S(C)(=O)=O)CC1)c1ccc(C#N)s1 (stereo partly drawn) [Compound 149, N-[(1S)-3-[exo-3-(3-isopropyl-5-methyl-4H-1,2,4-triazol-4-yl)-8-azabicyclo[3.2.1]octane-8-yl]-1-(5-cyanothiophen-2-yl)propyl]-1-methylsulfonylpiperidine-4-carboxamide] | – | – | – | comparable to the positive control compounds | IC50 (CCR5): 7.89 nM
Cc1nnc(C(C)C)n1C1CC2CCC(C1)N2CC[C@H](NC(=O)C1CCN(S(C)(=O)=O)CC1)c1ccc(F)s1 (stereo partly drawn) [Compound 151, N-[(1S)-3-[exo-3-(3-isopropyl-5-methyl-4H-1,2,4-triazol-4-yl)-8-azabicyclo[3.2.1]octane-8-yl]-1-(5-fluorothiophen-2-yl)propyl]-1-methylsulfonylpiperidine-4-carboxamide] | 3.45 nM | – | – | better than the positive control compounds | –
Cc1nnc(C(C)C)n1C1CC2CCC(C1)N2CC[C@H](NC(=O)C1CCC(F)(F)CC1)c1csc2ccccc12 (stereo partly drawn) [Compound 27, 4,4-difluoro-N-[(1S)-3-[exo-3-(3-isopropyl-5-methyl-4H-1,2,4-triazol-4-yl)-8-azabicyclo[3.2.1]octane-8-yl]-1-(benzothiophen-3-yl)propyl]cyclohexane-1-carboxamide] | – | 0.511 µg/mL (≈ 0.897 µM) | 188.14 | – | CC50 at 3 days [1]: 96.1 µg/mL (≈ 169 µM)
Cc1ccc([C@H](CCN2C3CCC2CC(n2c(C)nnc2C(C)C)C3)NC(=O)Cn2ncnn2)s1 (stereo partly drawn) [Compound 153, N-[(1S)-3-[exo-3-(3-isopropyl-5-methyl-4H-1,2,4-triazol-4-yl)-8-azabicyclo[3.2.1]octane-8-yl]-1-(5-methylthiophen-2-yl)propyl]-2-(2H-tetrazol-2-yl)acetamide] | 13.4 nM | – | – | – | –
CC(=O)Nc1ccc([C@H](CCN2C3CCC2CC(n2c(C)nnc2C(C)C)C3)NC(=O)C2CCCC2)s1 (stereo partly drawn) [Compound 139, N-[(1S)-3-[exo-3-(3-isopropyl-5-methyl-4H-1,2,4-triazol-4-yl)-8-azabicyclo[3.2.1]octane-8-yl]-1-(5-acetamidothiophen-2-yl)propyl]cyclopentane-1-carboxamide] | 12.3 nM | – | – | – | –
COc1ccc([C@H](CCN2C3CCC2CC(n2c(C)nnc2C(C)C)C3)NC(=O)Cn2ncnn2)s1 (stereo partly shown) [Compound 154] | – | – | – | – | IC50 (CCR5): 23.1 nM
CC(=O)N[C@@H](CCN1C2CCC1CC(n1c(C)nnc1C(C)C)C2)c1csc2ccccc12 (stereo partly drawn) [Compound 28, N-[(1S)-3-[exo-3-(3-isopropyl-5-methyl-4H-1,2,4-triazol-4-yl)-8-azabicyclo[3.2.1]octane-8-yl]-1-(benzothiophen-3-yl)propyl]acetamide] | – | > 40 µg/mL | – | – | CC50 at 3 days [1, 3]: > 200 µg/mL
CCc1ccc([C@H](CCN2C3CCC2CC(n2c(C)nnc2C(C)C)C3)NC(=O)C2CCCC2)s1 (stereo partly shown) [Compound 66] | 2.02 nM | – | – | better than the positive control compounds | –
CC(=O)N[C@@H](CCN1C2CCC1CC(n1c(C)nc3c1CCN(C(=O)C(C)C)C3)C2)c1ccc(C#N)s1 (stereo partly drawn) [Compound 143, N-{(1S)-3-[(3-endo)-3-(5-isobutyryl-2-methyl-4,5,6,7-tetrahydro-1H-imidazo[4,5-c]pyridin-1-yl)-8-azabicyclo[3.2.1]octane-8-yl]-1-(5-cyanothiophen-2-yl)-propyl}acetamide] | 13.9 nM | – | – | – | –
CC(=O)Nc1ccc([C@H](CCN2C3CCC2CC(n2c(C)nnc2C(C)C)C3)NC(=O)C2CCCCC2)s1 (stereo partly drawn) [Compound 138, N-[(1S)-3-[exo-3-(3-isopropyl-5-methyl-4H-1,2,4-triazol-4-yl)-8-azabicyclo[3.2.1]octane-8-yl]-1-(5-acetamidothiophen-2-yl)propyl]cyclohexane-1-carboxamide] | 9.75 nM | – | – | comparable to the positive control compounds | –
